Measurements from patent publication US20100298141A1, “SUBSTITUTED PYRIDINE N-OXIDE HERBICIDES” (E. I. DU PONT DE NEMOURS AND COMPANY, priority 2007, published 2010).

How the values were obtained:
johnsongrass = test: Test C pre-/postemergence test; assay type: in vivo, Sorghum halepense
Summary of the method: (§1)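 Seeds were planted and treated preemergence with test chemical in a non-phytotoxic solvent mixture containing surfactant. Postemergence applications of the same formulation went onto plants 2 to 18 cm tall (1- to 4-leaf stage). A dash marks no test result.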

redroot pigweed = test: Test A pre-/postemergence greenhouse test; assay type: in vivo, Amaranthus retroflexus; conditions: for Pigweed plant response rating: 0 to 100 scale
Summary of the method: (§2)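 Test compounds in non-phytotoxic solvent with surfactant were applied as a preemergence soil spray to seeded loam/sand pots and, concurrently, postemergence to plants at 2–10 cm, one- to two-leaf stage. About ten days in greenhouse, then injury visually rated against untreated controls.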

Italian ryegrass = test: Test C pre-/postemergence test; assay type: in vivo, Lolium multiflorum
Summary of the method: as §1

eastern black nightshade = test: Test C pre-/postemergence test; assay type: in vivo, Solanum ptycanthum
Summary of the method: as §1

yellow nutsedge = test: Test C pre-/postemergence test; assay type: in vivo, Cyperus esculentus
Summary of the method: as §1

bermudagrass = test: Test C pre-/postemergence test; assay type: in vivo, Cynodon dactylon
Summary of the method: as §1

morningglory [1] = test: Test A pre-/postemergence greenhouse test; assay type: in vivo, Ipomoea spp.; conditions: for Morningglory plant response rating: 0 to 100 scale
Summary of the method: as §2

morningglory [2] = test: Test C pre-/postemergence test; assay type: in vivo, Ipomoea coccinea
Summary of the method: as §1

kochia = test: Test C pre-/postemergence test; assay type: in vivo, Kochia scoparia
Summary of the method: as §1

wheat = test: Test C pre-/postemergence test; assay type: in vivo, Triticum aestivum
Summary of the method: as §1

corn [3] = test: Test A pre-/postemergence greenhouse test; assay type: in vivo, Zea mays; conditions: for Corn plant response rating: 0 to 100 scale
Summary of the method: as §2

cocklebur = test: Test C pre-/postemergence test; assay type: in vivo, Xanthium strumarium
Summary of the method: as §1

wild oat = test: Test C pre-/postemergence test; assay type: in vivo, Avena fatua
Summary of the method: as §1

rice = test: Test C flooded paddy test; assay type: in vivo, Oryza sativa; conditions: Flood
Summary of the method: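 In-water treatment: compound dosed into 3 cm flood over soil, water level unchanged throughout. Controls run alongside; visual assessment at day 13–15.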

corn [4] = test: Test C pre-/postemergence test; assay type: in vivo, Zea mays
Summary of the method: as §1

[5] = system: common (oilseed) sunflower; test: Test C pre-/postemergence test; assay type: in vivo, Helianthus annuus
Summary of the method: as §1

giant foxtail = test: Test C pre-/postemergence test; assay type: in vivo, Setaria faberii
Summary of the method: as §1

[6] = 62 g ai/ha, Preemergence, scale 0 to 100
[7] = 125 g ai/ha, preemergence, scale 0 (no effect) to 100 (complete control)
[8] = Preemergence, 31 g ai/ha, scale 0 to 100 (0 no effect, 100 complete control)
[9] = preemergence, 250 g ai/ha, scale 0 (no effect) to 100 (complete control)
[10] = Postemergence, 125 g ai/ha, 0 to 100 scale where 0 is no effect and 100 is complete control
[11] = Postemergence, 500 g ai/ha, 0 is no effect, 100 is complete control
[12] = Preemergence, 125 g ai/ha, 0 no effect, 100 complete control
[13] = Preemergence, 500 g ai/ha, 0 no effect, 100 complete control

With Cc1cc[n+]([O-])c(S(=O)(=O)Cc2c(C(F)(F)C(F)(F)F)nn(C)c2OCC(F)(F)F)c1 [Compound 99] the “Johnsongrass plant response rating” value (johnsongrass; [6]) was 90, the “Johnsongrass plant response rating” value (johnsongrass; [7]) was 100 and the “Plant response rating, Johnsongrass” value (johnsongrass; [8]) was 40. The “Johnsongrass plant response rating” value (johnsongrass; [9]) was 100, the “Plant response rating, Pigweed” value (redroot pigweed; [10]) was 10 and the “Pigweed plant response rating” value (redroot pigweed; [11]) was 60. The “Pigweed plant response rating” value (redroot pigweed; [12]) was 100, the “Pigweed plant response rating” value (redroot pigweed; [13]) was 100 and the “Ryegrass, Italian plant response rating” value (Italian ryegrass; [6]) was 70. For the same compound, the “Ryegrass, Italian plant response rating” value (Italian ryegrass; [7]) was 75, the “Plant response rating, Ryegrass, Italian” value (Italian ryegrass; [8]) was 70 and the “Ryegrass, Italian plant response rating” value (Italian ryegrass; [9]) was 100. For the same compound, the “Nightshade plant response rating” value (eastern black nightshade; [6]) was 98, the “Nightshade plant response rating” value (eastern black nightshade; [7]) was 100 and the “Plant response rating, Nightshade” value (eastern black nightshade; [8]) was 90. For the same compound, the “Nightshade plant response rating” value (eastern black nightshade; [9]) was 100, the “Nutsedge, Yellow plant response rating” value (yellow nutsedge; [6]) was 60 and the “Nutsedge, Yellow plant response rating” value (yellow nutsedge; [7]) was 60. The “Plant response rating, Nutsedge, Yellow” value (yellow nutsedge; [8]) was 0, the “Nutsedge, Yellow plant response rating” value (yellow nutsedge; [9]) was 80 and the “Bermudagrass plant response rating” value (bermudagrass; 62 g ai/ha, Preemergence, scale 0 to 100 (0 no effect, 100 complete control)) was 100. The “Bermudagrass plant response rating” value (bermudagrass; [7]) was 100, the “Plant response rating, Bermudagrass” value (bermudagrass; [8]) was 85 and the “Bermudagrass plant response rating” value (bermudagrass; [9]) was 100. For the same compound, the “Plant response rating, Morningglory” value (morningglory [1]; [10]) was 40, the “Morningglory plant response rating” value (morningglory [1]; [11]) was 50 and the “Morningglory plant response rating” value (morningglory [1]; [12]) was 50. The “Morningglory plant response rating” value (morningglory [1]; [13]) was 100, the “Morningglory plant response rating” value (morningglory [2]; [6]) was 100 and the “Morningglory plant response rating” value (morningglory [2]; [7]) was 100. The “Plant response rating, Morningglory” value (morningglory [2]; [8]) was 65, the “Morningglory plant response rating” value (morningglory [2]; [9]) was 100 and the “Kochia plant response rating” value (kochia; [6]) was 100. The “Kochia plant response rating” value (kochia; [7]) was 100, the “Plant response rating, Kochia” value (kochia; [8]) was 100 and the “Kochia plant response rating” value (kochia; [9]) was 100. The “Wheat plant response rating” value (wheat; [6]) was 55, the “Wheat plant response rating” value (wheat; [7]) was 55 and the “Plant response rating, Wheat” value (wheat; [8]) was 25. For the same compound, the “Wheat plant response rating” value (wheat; [9]) was 95, the “Plant response rating, Corn” value (corn [3]; [10]) was 40 and the “Corn plant response rating” value (corn [3]; [11]) was 60. For the same compound, the “Corn plant response rating” value (corn [3]; [12]) was 0, the “Corn plant response rating” value (corn [3]; [13]) was 30 and the “Cocklebur plant response rating” value (cocklebur; [6]) was 0. The “Cocklebur plant response rating” value (cocklebur; [7]) was 0, the “Plant response rating, Cocklebur” value (cocklebur; [8]) was 0 and the “Cocklebur plant response rating” value (cocklebur; [9]) was 30. The “Oat, Wild plant response rating” value (wild oat; [6]) was 80, the “Oat, Wild plant response rating” value (wild oat; [7]) was 95 and the “Plant response rating, Oat, Wild” value (wild oat; [8]) was 30. The “Oat, Wild plant response rating” value (wild oat; [9]) was 95, the “Plant response rating, Rice” value (rice; 62 g ai/ha, scale 0 to 100 (0 no effect, 100 complete control)) was 0 and the “Plant response rating, Rice” value (rice; 250 g ai/ha, scale 0 to 100, 0 no effect, 100 complete control, 13 to 15 days) was 45. The “Corn plant response rating” value (corn [4]; [6]) was 0, the “Corn plant response rating” value (corn [4]; [7]) was 30 and the “Plant response rating, Corn” value (corn [4]; [8]) was 0. For the same compound, the “Corn plant response rating” value (corn [4]; [9]) was 50, the “Sunflower plant response rating” value [5, 6] was 30 and the “Sunflower plant response rating” value [5, 7] was 30. For the same compound, the “Plant response rating, Sunflower” value [5, 8] was 30, the “Sunflower plant response rating” value [5, 9] was 40 and the “Foxtail, Giant plant response rating” value (giant foxtail; [6]) was 85. The “Foxtail, Giant plant response rating” value (giant foxtail; [7]) was 100 and the “Foxtail, Giant plant response rating” value (giant foxtail; [9]) was 100.
